This is an account of results in publication PMC10434283, “A Novel Two-Component Bacteriocin, Acidicin P, and Its Key Residues for Inhibiting Listeria monocytogenes by Targeting the Cell Membrane” (Microbiology Spectrum, 2023).

Assay [1] deals with L. monocytogenes. Kind of assay: Agar well diffusion assay of the mutations. The format is cell-based, Listeria monocytogenes. Particulars: BHI agar, 10^5 CFU/mL, 40 μL peptide per well, 24 h at 30°C. An excerpt: (§1) The antimicrobial spectrum was investigated using the indicator strains Streptococcus agalactiae 10465, Listeria monocytogenes 1.10753, enterotoxigenic Escherichia coli K88, vancomycin-resistant Enterococcus faecalis V583, Salmonella enterica serovar Typhimurium 14028, methicillin-resistant Staphylococcus aureus, and Bacillus cereus 1.1846. L. monocytogenes 1.10753 was used for growth curve measurement with a microtiter plate assay system. The indicator (at 1 × 10^5 CFU/mL) and the peptide (at 2-fold dilutions) were added to a final volume of 200 μL in each well. The bacterial growth was monitored with Bioscreen C (OyGrowth Curves Ab Ltd.) at 600 nm at 30°C. The MIC was defined as the total amount of Adpα, Adpβ, and acidicin P (the complementary peptides combined with equal amounts) that inhibited the growth of the indicator strain. The agar well diffusion method was used to investigate the antimicrobial activity of the mutations. The L. monocytogenes was inoculated in a brain heart infusion (BHI) agar plate as an indicator at a concentration of 10^5 CFU/mL. The peptide mutants (40 μL) were added to the wells (5 mm), and the plates were incubated for 24 h at 30°C.
In general terms: A growth-free zone around the sample is the usual read-out of agar diffusion tests.

The test system of assay [2] is Listeria monocytogenes 1.10753. Kind of assay: MIC by microtiter plate growth curve assay. The format is cell-based. As to conditions: for growth rate of L. monocytogenes: peptide individually, at any concentration; for MIC: microtiter growth curve, 1 × 10^5 CFU/mL, 30°C, 600 nm.
Excerpt: as §1

For assay [3], the system named is L. monocytogenes cell membrane. Kind of assay: Cytoplasmic membrane permeability assay with propidium iodide. In kind it is cell-based, Listeria monocytogenes. As to conditions: positive control, 1× MIC. As to the method: Pretreatment of L. monocytogenes cells for the cytoplasmic membrane permeability assay was similar to that for the PMF assay. The cells were resuspended in 1 mL PBS and treated with different concentrations of acidicin P at 30°C for 30 min. The treated cells were stained with 10 μg/mL propidium iodide (PI, Bioss) in the dark for 15 min. Emission spectra of the mixture were recorded at 615 nm upon excitation at 535 nm with a Synergy H4 device (BioTek).

Turning to “ANKMAYNVGKAISRIMRRVR [R1A (Adpα)-D12A (Adpβ), acidicin P mutant pair]”, the “antimicrobial activity compared to the wild type” value in assay [1] is “no detrimental effect”.

Turning to “KKKRGFWYHVGDAVTSFGRGFASAFG [Adpβ, 26-residue mature β peptide of the two-component bacteriocin acidicin P, obtained by solid-phase peptide synthesis]”, the “growth rate of L. monocytogenes” value in assay [2] is “not affected”. For the same substance, the MIC entry in assay [2] (ratio α:β 0:1 (Adpβ alone)) was “/ (No antimicrobial activity observed in the range of 1.56 to 200 μg/mL acidicin P)”.

In the case of “RNKMAYAVGKAISAIMRRVR [N7A//R14A (Adpα)-D12A//S16A//R19A (Adpβ), acidicin P mutant pair: Adpα N7A, R14A with Adpβ D12A, S16A, R19A]”, the “antimicrobial activity compared to the wild type” value in assay [1] is on record as “significantly decreased”.

Take “RNKMAYAVGKAISRIMRRVR [N7A (Adpα)-S16A//R19A (Adpβ), acidicin P mutant pair: Adpα N7A with Adpβ S16A, R19A]”: the “antimicrobial activity compared to the wild type” value in assay [1] is “significantly decreased”.

Consider “RNKMAYNVGKAISAIMRRVR [R14A (Adpα)-D12A (Adpβ), acidicin P mutant pair: Adpα R14A with Adpβ D12A]”, for which the “antimicrobial activity compared to the wild type” value in assay [1] is reported as “significantly decreased”.

For the substance “RNKMAYNVGKAISRIMRAVR [R18A (Adpα)-K2A (Adpβ), acidicin P mutant pair: Adpα R18A with Adpβ K2A]”, the “antimicrobial activity compared to the wild type” value in assay [1] is listed as “no detrimental effect”.

“RNKMAYNVGKAISRIMRRVR [Adpα, 20-residue mature α peptide of the two-component bacteriocin acidicin P, obtained by solid-phase peptide synthesis]”: the “growth rate of L. monocytogenes” value in assay [2] is on record as “not affected”. Moreover, the MIC entry in assay [2] (ratio α:β 1:0 (Adpα alone)) is given as “/ (No antimicrobial activity observed in the range of 1.56 to 200 μg/mL acidicin P)”.

Turning to “RNKMIYNVIKAISRIMRRVR [A5I//G9I (Adpα)-S16I//G20I (Adpβ), acidicin P mutant pair: Adpα A5I, G9I with Adpβ S16I, G20I]”, in assay [1], the “antimicrobial activity compared to the wild type” value is on record as “significantly decreased” and the bactericidal zone result was “no bactericidal zone was observed”.

Consider nisin, for which the “PI fluorescence versus untreated cells” value in assay [3] is on record as “higher fluorescence”.
